Tests used:
[1] = test system: cocklebur; assay: Test B pre/postemergence cocklebur; assay type: in vivo, Xanthium strumarium
Summary of the method: (§1)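 Test chemicals in a non-phytotoxic solvent mixture with surfactant were sprayed preemergence onto planted seeds and postemergence onto plants 2 to 18 cm tall (1- to 4-leaf stage). After twelve to sixteen days in a greenhouse, injury was visually rated against untreated controls from 0 (no effect) to 10 (complete control).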

[2] = test system: rape; assay: Test B pre/postemergence rape; assay type: in vivo, Brassica napus
Summary of the method: as §1

[3] = test system: sugar beet; assay: Test B pre/postemergence sugar beet; assay type: in vivo, Beta vulgaris
Summary of the method: as §1

[4] = test system: bamyardgrass; assay: Test B flood test barnyardgrass; assay type: in vivo, Echinochloa crus-galli; conditions: for Plant response rating, Barnyardgrass (0 to 10 scale, 0 is no effect, 10 is complete control): Rate 62 g/ha, Pre-emergence; for Plant response rating, Barnyardgrass (0 to 10 scale, 0 is no effect, 10 is complete control) / Barnyardgrass plant response rating (0 to 10 scale, 0 is no effect, 10 is complete control): flood test species, visual evaluation after twelve to sixteen days; for Barnyardgrass plant response rating (0 to 10 scale, 0 is no effect, 10 is complete control): Rate 125 g/ha, under heading Pre-emergence
Summary of the method: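 Each value is a visual injury score relative to controls, with 10 meaning complete control and 0 no effect. Evaluation took place twelve to sixteen days after the 2-leaf-stage plants were treated and kept in the greenhouse.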

[5] = Postemergence, Rate 62 g/ha, scale 0 to 10, 0 is no effect, 10 is complete control
[6] = Postemergence, Rate 125 g/ha, scale of 0 to 10 where 0 is no effect and 10 is complete control
[7] = Postemergence, Rate 250 g/ha, scale of 0 to 10, 0 is no effect, 10 is complete control
[8] = Postemergence, Rate 500 g/ha, scale of 0 to 10 where 0 is no effect and 10 is complete control
[9] = Preemergence, Rate 62 g/ha, scale 0 to 10 (0 no effect, 10 complete control)
[10] = Preemergence, Rate 125 g/ha, scale of 0 to 10 where 0 is no effect and 10 is complete control
[11] = Preemergence, Rate 250 g/ha, scale 0 to 10 (0 no effect, 10 complete control)
[12] = Preemergence, Rate 500 g/ha, scale of 0 to 10 where 0 is no effect and 10 is complete control
[13] = Rate 250 g/ha, Pre-emergence (flood test species), scale 0 to 10, 0 is no effect, 10 is complete control
[14] = Rate 500 g/ha, Pre-emergence section of Table B, 0 to 10 scale (0 no effect, 10 complete control)
[15] = Postemergence, Rate 62 g/ha, scale of 0 to 10, 0 is no effect, 10 is complete control
[16] = Postemergence, Rate 125 g/ha, scale 0 to 10, 0 is no effect, 10 is complete control
[17] = Preemergence, Rate 125 g/ha, scale 0 to 10, 0 is no effect, 10 is complete control
[18] = Rate 250 g/ha, Postemergence, scale of 0 to 10 where 0 is no effect and 10 is complete control
[19] = Postemergence, Rate 31 g/ha, visual rating, scale 0 to 10 (0 no effect, 10 complete control)
[20] = Postemergence, Rate 250 g/ha, scale 0 to 10
[21] = Preemergence, Rate 62 g/ha, scale of 0 to 10 where 0 is no effect and 10 is complete control
[22] = Preemergence, Rate 250 g/ha, scale 0 to 10, 0 is no effect, 10 is complete control
[23] = Rate 62 g/ha, Postemergence, scale 0 to 10 (0 no effect, 10 complete control)
[24] = Rate 125 g/ha, Postemergence, scale 0 to 10, 0 is no effect, 10 is complete control

CC(C)N(C(=O)n1oc(=O)n(CNC(=O)c2ccccc2)c1=O)c1ccccc1 [Compound 620]
0: Plant response rating, Cocklebur [1, 5] | Plant response rating, Cocklebur [1, 6] | Cocklebur plant response rating [1, 7] | Plant response rating, Cocklebur [1, 8] | Cocklebur plant response rating [1, 9] | Cocklebur plant response rating [1, 10] | Plant response rating, Cocklebur [1, 11] | Plant response rating, Cocklebur [1, 12] | Plant response rating, Rape [2, 5] | Plant response rating, Rape [2, 6] | Rape plant response rating [2, 7] | Plant response rating, Rape [2, 8] | Rape plant response rating [2, 9] | Rape plant response rating [2, 10] | Plant response rating, Rape [2, 11] | Plant response rating, Rape [2, 12] | Plant response rating, Sugarbeets [3, 5] | Plant response rating, Sugarbeets [3, 6] | Sugarbeets plant response rating [3, 7] | Sugarbeets plant response rating [3, 9] | Sugarbeets plant response rating [3, 10] | Plant response rating, Sugarbeets [3, 11] | Plant response rating, Sugarbeets [3, 12] | Plant response rating, Barnyardgrass (0 to 10 scale, 0 is no effect, 10 is complete control) [4] | Barnyardgrass plant response rating (0 to 10 scale, 0 is no effect, 10 is complete control) [4] | Barnyardgrass plant response rating [4, 13] | Barnyardgrass plant response rating [4, 14]

CC(C)N(C(=O)n1oc(=O)n(CCC2OCCCO2)c1=O)c1ccccc1 [Compound 561]
4: Rape plant response rating [2, 15] | Rape plant response rating [2, 16] | Plant response rating, Rape [2, 8] | Plant response rating, Rape [2, 18] | Plant response rating, Sugarbeets [3, 8]
5: Rape plant response rating (0 to 10 scale) ([2]; Preemergence, Rate 250 g/ha)
8: Sugarbeets plant response rating [3, 12]
9: Rape plant response rating [2, 12]
2: Rape plant response rating [2, 9] | Rape plant response rating [2, 17] | Sugarbeets plant response rating (0 to 10 scale) ([3]; Preemergence, Rate 250 g/ha)
0: Cocklebur plant response rating [1, 15] | Cocklebur plant response rating [1, 16] | Plant response rating, Cocklebur [1, 8] | Cocklebur plant response rating [1, 9] | Cocklebur plant response rating [1, 17] | Cocklebur plant response rating (0 to 10 scale) ([1]; Preemergence, Rate 250 g/ha) | Cocklebur plant response rating [1, 12] | Plant response rating, Cocklebur [1, 18] | Sugarbeets plant response rating [3, 15] | Sugarbeets plant response rating [3, 9] | Sugarbeets plant response rating [3, 17] | Plant response rating, Barnyardgrass (0 to 10 scale, 0 is no effect, 10 is complete control) [4] | Barnyardgrass plant response rating (0 to 10 scale, 0 is no effect, 10 is complete control) [4] | Barnyardgrass plant response rating [4, 13] | Barnyardgrass plant response rating [4, 14]

Cc1nc(C)c(C(C)n2c(=O)on(C(=O)N(c3ccccc3)C(C)C)c2=O)s1 (stereo not shown) [Compound 442]
0: Cocklebur plant response rating [1, 19] | Cocklebur plant response rating [1, 20] | Cocklebur plant response rating ([1]; Preemergence, Rate 31 g/ha, visual rating, scale 0 to 10 (0 no effect, 10 complete control)) | Plant response rating, Cocklebur [1, 21] | Plant response rating, Cocklebur [1, 10] | Cocklebur plant response rating [1, 22] | Cocklebur plant response rating [1, 23] | Cocklebur plant response rating [1, 24] | Rape plant response rating [2, 19] | Rape plant response rating [2, 20] | Plant response rating, Rape [2, 21] | Plant response rating, Rape [2, 10] | Rape plant response rating [2, 22] | Rape plant response rating [2, 23] | Rape plant response rating [2, 24] | Sugarbeets plant response rating [3, 19] | Sugarbeets plant response rating [3, 20] | Plant response rating, Sugarbeets [3, 21] | Plant response rating, Sugarbeets [3, 10] | Sugarbeets plant response rating [3, 22] | Sugarbeets plant response rating [3, 23] | Sugarbeets plant response rating [3, 24] | Barnyardgrass plant response rating ([4]; Rate 31 g/ha, Pre-emergence section (flood test species), scale 0 to 10) | Plant response rating, Barnyardgrass (0 to 10 scale, 0 is no effect, 10 is complete control) [4] | Barnyardgrass plant response rating (0 to 10 scale, 0 is no effect, 10 is complete control) [4] | Barnyardgrass plant response rating [4, 13]

Source: US6737383B1, “Herbicidal oxadiazolidines” (priority 1999, dated 2004)
